Broadly, the IC50 is the concentration needed to halve the response being measured.

In one test the target is T1, ZAP-70 (Homo sapiens, UniProt P43403).
T1 construct: endogenous in cells; host or cells: cell lysate
T1 sequence (P43403 1-619): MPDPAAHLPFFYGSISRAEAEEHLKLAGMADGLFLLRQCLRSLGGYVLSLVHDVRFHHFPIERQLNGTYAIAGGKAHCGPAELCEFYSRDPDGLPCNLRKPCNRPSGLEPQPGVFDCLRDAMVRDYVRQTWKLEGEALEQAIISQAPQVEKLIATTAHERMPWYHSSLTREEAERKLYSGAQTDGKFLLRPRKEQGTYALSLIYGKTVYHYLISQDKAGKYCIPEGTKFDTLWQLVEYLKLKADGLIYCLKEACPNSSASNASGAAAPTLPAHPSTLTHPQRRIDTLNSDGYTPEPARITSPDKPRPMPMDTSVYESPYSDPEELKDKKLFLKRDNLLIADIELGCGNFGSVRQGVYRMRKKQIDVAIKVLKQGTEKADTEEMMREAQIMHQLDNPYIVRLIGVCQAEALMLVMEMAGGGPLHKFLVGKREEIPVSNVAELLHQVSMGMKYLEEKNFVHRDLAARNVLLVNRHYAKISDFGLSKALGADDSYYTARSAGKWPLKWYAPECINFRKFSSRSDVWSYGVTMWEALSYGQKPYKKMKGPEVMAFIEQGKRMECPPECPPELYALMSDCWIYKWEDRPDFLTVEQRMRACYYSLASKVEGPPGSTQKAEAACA
Nature of the test: ZAP-70 kinobeads assay. The format is binding. The conditions noted are these: competition with immobilized aminopyrido-pyrimidine ligand 24 in cell lysate; ZAP-70 detected by dot blot. Put shortly:
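Competition binding format: compounds compete with a bead-immobilized aminopyrido-pyrimidine ligand for ZAP-70 in cell lysate. After bead separation and elution, bound ZAP-70 measured by antibody dot blot with infrared read-out.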

The test system of another test is Jurkat cells. Nature of the test: Calcium release assay (Fluo-4 flow cytometry after anti-CD3 stimulation). It is filed as cell-based. The conditions noted are these: Homo sapiens, Jurkat cell line J77, anti-CD3 activation, read-out: IC50 (Calcium ion release in cells). Here is the method: Compounds of the present invention were tested in a Calcium release assay as described below.
The development of fluorescent probes makes it possible to measure the concentration of intracellular free Calcium ions in single living cells. Cells are first loaded with a cell-permeable Ca^2+-sensitive dye, then the test compound is added. Finally, cells are activated through the T cell receptor with an anti-CD3 antibody shortly before data acquisition on the flow cytometer. The release of Ca^2+ is measured as a function of time after cell stimulation. This protocol describes the flow cytometry method using the Fluo-3 and Fluo-4 dyes (Minta et al., 1989, J. Biol. Chem. 264(14):8171-8178) to measure the intracellular Ca^2+ concentration in Jurkat cells (see also June et al., 1997, Measurement of intracellular calcium ions by flow cytometry. In: Current Protocols in Cytometry (1997) Unit 9.8.1-9.8.19, John Wiley & Sons, Inc.).
In general, cells should be handled in the shortest time possible to assure their stability. Therefore the preparation of all materials in advance is highly recommended as well as using any incubation or centrifugation time to prepare the next steps (e.g. preparing compound dilution or starting the flow cytometer).
1) Prepare a work plan indicating the number of samples to be analyzed including controls. 2) Cell harvest: Centrifuge 50 to 100 ml of a Jurkat cell culture for 5 minutes at 1100 rpm. Discard the supernatant, pool the resuspended cell pellets in a single 50 ml Falcon tube, and fill up to 50 ml with PBS—CaCl2 (without FCS). Centrifuge again sample again. 3) Resuspend cell pellet with PBS—CaCl2 (without FCS) to achieve a concentration not lower than 10×10^6 cells/ml. Prepare an adequate dilution to evaluate the cell concentration and count the cells. 4) Separate the volume of cells needed to be loaded (for example […] for 20 samples) in a 50 ml Falcon tube. Fill up with PBS—CaCl2 to 900 μl for 107 cells. 5) Prepare in the dark a 1:1 mix of FLUO-4 (1 mM)+Pluronic F-127 (20%). 5 μl of Fluo-4 are needed per 107 cells. 6) Prepare a 1/10 dilution of this mix with PBS—CaCl2 (in the dark; for example 5 μl Fluo-4+5 μl F-127 completed to 100 μl). 7) Add the dye solution to the cells. […] 8) Incubate the sample for 30 minutes in a cell incubator (37° C., 5% CO2). Mix from time to time. 9) During this time prepare the adequate test compound dilution in PBS—CaCl2 (with 10% FCS). The solution should be 10 times more concentrated than the desired final concentration. Vortex each dilution. Prepare also the antibody dilutions: anti-CD3 (1/200) and GAM (1/25). 10) Label FACS tubes and distribute in the corresponding tube 30 μl of the compound dilution or only buffer for the control tubes. 11) After 30 minutes of incubation wash the cells twice in PBS—CaCl2 (with 10% FCS). During the washing steps make sure that the flow cytometer is already “ON” in order to warm the laser. 12) Resuspend the cell pellet in PBS—CaCl2 (with 10% FCS) at a concentration of 1.5×10^6 cells/ml. 13) Distribute 300 μl of cell suspension into the FACS tubes and mix gently. The compound incubation is starting. Keep samples at room temperature in the dark. 14) Open the settings of the cytometer. It is advised to have a template ready which is used for all measurements. Settings of the machine should also be the same from one experiment to the other which permits to evaluate the reproducibility of the cell preparation. 15) In Setup modus control your cell preparation on the cytometer. Cells should fit in the pre-defined gates. 16) During the compound incubation time, check also that cells are responding to the anti-CD3 activation as expected. Set a timer at 8 sec. Add 6 μl of anti-CD3 dilution (0.2 μg/ml final) and mix gently. Add 1 μl of GAM dilution (0.75 μg/ml final) and mix gently. Incubate the samples in water bath at 37° C. while starting timer. After 8 seconds of incubation, acquire data at medium speed for 200 seconds. […]
On the technique in general: In flow cytometry, cells or beads pass a laser one at a time.

On to `COc1cc(Nc2ncc(F)c(Nc3ccccc3NS(C)(=O)=O)n2)cc(OC)c1OC` [Example 1, N-(2-(5-fluoro-2-(3,4,5-trimethoxyphenylamino)pyrimidin-4-ylamino)phenyl)methanesulfonamide], for which the IC50 at ZAP-70 and in the test on Jurkat cells was 100 to 1000 nM each time.

With `CS(=O)(=O)Nc1ccccc1Nc1nc(Nc2ccc(F)cc2)ncc1F` [Example 2, N-(2-(5-fluoro-2-(4-fluorophenylamino)pyrimidin-4-ylamino)phenyl)methanesulfonamide], the IC50 on ZAP-70 fell in the range of 1000 to 10000 nM; in the test with Jurkat cells, 100 to 1000 nM. `Cc1cc(C)cc(Nc2ncc(F)c(Nc3ccccc3NS(C)(=O)=O)n2)c1` [Example 3, N-(2-(2-(3,5-dimethylphenylamino)-5-fluoropyrimidin-4-ylamino)phenyl)methanesulfonamide]: the IC50 on ZAP-70 and in the test on Jurkat cells was 100 to 1000 nM throughout.

With `CS(=O)(=O)Nc1ccccc1Nc1nc(Nc2ccc3c(c2)OCCO3)ncc1F` [Example 4, N-(2-(2-(2,3-dihydrobenzo[b][1,4]dioxin-6-ylamino)-5-fluoropyrimidin-4-ylamino)phenyl)methanesulfonamide], the IC50 at ZAP-70 is 1000 to 10000 nM; in the test on Jurkat cells, 100 to 1000 nM. Consider `CN(C)c1ccc(Nc2ncc(F)c(Nc3ccccc3NS(C)(=O)=O)n2)cc1` [Example 7, N-(2-(2-(4-(dimethylamino)phenylamino)-5-fluoropyrimidin-4-ylamino)phenyl)methanesulfonamide], for which the IC50 on ZAP-70 and in the test with Jurkat cells was 100 to 1000 nM in each case. Consider `CC(=O)c1cccc(Nc2ncc(F)c(Nc3ccccc3NS(C)(=O)=O)n2)c1` [Example 14, N-(2-(2-(3-acetylphenylamino)-5-fluoropyrimidin-4-ylamino)phenyl)methanesulfonamide], for which the IC50 on ZAP-70 and with Jurkat cells was 100 to 1000 nM throughout. For the compound `Cc1nc2cc(Nc3ncc(F)c(Nc4ccccc4NS(C)(=O)=O)n3)ccc2s1` [Example 18, N-(2-(5-fluoro-2-(2-methylbenzo[d]thiazol-5-ylamino)pyrimidin-4-ylamino)phenyl)methanesulfonamide], the IC50 at ZAP-70 lay within 1000 to 10000 nM; with Jurkat cells it was 100 to 1000 nM.

In the case of `CS(=O)(=O)Nc1ccccc1Nc1nc(Nc2cccc(-n3cncn3)c2)ncc1F` [Example 21, N-(2-(2-(3-(1H-1,2,4-triazol-1-yl)phenylamino)-5-fluoropyrimidin-4-ylamino)phenyl)methanesulfonamide], the figures for the IC50 at ZAP-70 and with Jurkat cells were 1000 to 10000 nM and 100 to 1000 nM, respectively. As to `CN1C(=O)COc2cc(Nc3ncc(F)c(Nc4ccccc4NS(C)(=O)=O)n3)ccc21` [Example 25, N-(2-(5-fluoro-2-(4-methyl-3-oxo-3,4-dihydro-2H-benzo[b][1,4]oxazin-7-ylamino)pyrimidin-4-ylamino)phenyl)methanesulfonamide], the IC50 at ZAP-70 and in the test with Jurkat cells was 100 to 1000 nM throughout. On to `CS(=O)(=O)Nc1ccccc1Nc1nc(Nc2ccc3cn[nH]c3c2)ncc1F` [Example 32, N-(2-(2-(1H-indazol-6-ylamino)-5-fluoropyrimidin-4-ylamino)phenyl)methanesulfonamide], for which the half-inhibitory concentration (IC50) at ZAP-70 and with Jurkat cells was 100 to 1000 nM each time. For the compound `COc1ccc(Nc2ncc(F)c(Nc3ccccc3NS(C)(=O)=O)n2)cc1` [Example 35, N-(2-(5-fluoro-2-(4-methoxyphenylamino)pyrimidin-4-ylamino)phenyl)methanesulfonamide], the IC50 on ZAP-70 and in the test on Jurkat cells was 100 to 1000 nM each time.

With `COc1ccc(Nc2ncc(F)c(Nc3ccccc3NS(C)(=O)=O)n2)cc1OC` [Example 36, N-(2-(2-(3,4-dimethoxyphenylamino)-5-fluoropyrimidin-4-ylamino)phenyl)methanesulfonamide], the IC50 on ZAP-70 and with Jurkat cells was 100 to 1000 nM each time.

`COc1cc(Nc2ncc(F)c(Nc3ccccc3NS(C)(=O)=O)n2)cc(OC)c1` [Example 37, N-(2-(2-(3,5-dimethoxyphenylamino)-5-fluoropyrimidin-4-ylamino)phenyl)methanesulfonamide]: the IC50 on ZAP-70 and with Jurkat cells was 100 to 1000 nM each time. Turning to `COc1cccc(Nc2ncc(F)c(Nc3ccccc3NS(C)(=O)=O)n2)c1` [Example 38, N-(2-(5-fluoro-2-(3-methoxyphenylamino)pyrimidin-4-ylamino)phenyl)methanesulfonamide], the figures for the IC50 at ZAP-70 and in the test with Jurkat cells were 1000 to 10000 nM and 100 to 1000 nM, respectively. With `COc1cc(Nc2ncc(F)c(Nc3ccc(NS(=O)(=O)c4ccccc4)cc3)n2)cc(OC)c1OC` [Example 44, N-(4-(5-fluoro-2-(3,4,5-trimethoxyphenylamino)pyrimidin-4-ylamino)phenyl)benzenesulfonamide], in the test with Jurkat cells, the IC50 is 100 to 1000 nM. `COc1cc(Nc2ncc(F)c(Nc3ccccc3NS(=O)(=O)c3ccsc3)n2)cc(OC)c1OC` [Example 49, N-(2-(5-fluoro-2-(3,4,5-trimethoxyphenylamino)pyrimidin-4-ylamino)phenyl)thiopehene-3-sulfonamide]: the IC50 was in the range of 1000 to 10000 nM at ZAP-70 and 100 to 1000 nM with Jurkat cells.

Take `COc1cc(Nc2ncc(F)c(Nc3ccccc3NS(=O)(=O)c3cccs3)n2)cc(OC)c1OC` [Example 50, N-(2-(5-fluoro-2-(3,4,5-trimethoxyphenylamino)pyrimidin-4-ylamino)phenyl)thiopehene-2-sulfonamide]: the IC50 at ZAP-70 was 1000 to 10000 nM; in the test with Jurkat cells, 100 to 1000 nM.

On to `COc1cc(Nc2ncc(F)c(Nc3cccc(NS(=O)(=O)c4cccnc4)c3)n2)cc(OC)c1OC` [Example 58, N-(3-(5-fluoro-2-(3,4,5-trimethoxyphenylamino)pyrimidin-4-ylamino)phenyl)pyridine-3-sulfonamide], for which the half-inhibitory concentration (IC50) with Jurkat cells lay within 100 to 1000 nM. `CS(=O)(=O)Nc1ccccc1Nc1nc(Nc2ccc(-n3cnnn3)cc2)ncc1Cl` [Example 214, N-(2-(2-(4-(1H-tetrazol-1-yl)phenylamino)-5-chloropyrimidin-4-ylamino)phenyl)methanesulfonamide] returned an IC50 at ZAP-70 of 100 to 1000 nM. The same measure, in the same setting: in the case of `CS(=O)(=O)Nc1ccccc1Nc1nc(Nc2cccc(-n3cnnn3)c2)ncc1Br` [Example 216, N-(2-(2-(3-(1H-tetrazol-1-yl)phenylamino)-5-bromopyrimidin-4-ylamino)phenyl)methanesulfonamide] it was 100 to 1000 nM.

These data come from patent US20110098288A1, “SULFONAMIDES AS ZAP-70 INHIBITORS” (priority 2008, published 2011).
